# System: Human non-small cell lung cancer NCI-H358
# Experiment: Cell proliferation assay (CellTiter-Glu) in NCI-H358
# Type: cell-based
# Conditions: 5 days, NCI-H358 cells, cell viability by CellTiter-Glu, compound 0.3 nM-2 μM, medium and compound renewed after 3 days
# Protocol: Cell proliferation inhibition screening method was established by CellTier-Glu® test reagent from Promega.
# Human non-small cell lung cancer NCI-H358 was cultured by RPMI-1640 (Gibco®) medium with 10% fetal bovine serum (Gibco®) at 37° C., 95% air and 5% CO2, in 25 cm^2 or 75 cm^2 plastic culture bottle ((Nunc®) and passaged 2-3 times a week.
# The cells were seeded on the 96 well cell culture plate (Nunc®) at the density of 2*10^3/well, 90 μL/well, and cultured at 37° C., 95% air and 5% CO2. The compound to be tested was added 24 hours later: the compound was diluted 3 times with DMSO from the concentration of 2 mM compound (dissolved in DMSO). […] 10 μL of the compound diluted by culture medium was added into the culture plate seeded with cells. The final concentration of DMSO in cell culture medium was 0.1%, and the final concentration of test compound was 0.3 nM-2 μM. The cells were incubated at 37° C. for 3 days. The culture medium was substituted with 90 μL/well fresh complete medium. According to the above diluting method of compounds, the compound to be tested was added.
# After 5 days, cell viability was tested by CellTiter-Glu (Promega) kit, and finally, the semi-inhibitory concentration of compounds on cell proliferation, i.e. IC50 was calculated by Prism program.
row,Compound,IC50 [nM]
1,Cc1nc(N2CCC3(CC2)Cc2ccccc2[C@H]3N)c(CO)nc1-c1ccc(Cl)c(Cl)c1 [Compound 22],195
2,Cc1nc(N2CCC3(CC2)Cc2ccccc2[C@H]3N)c(CO)nc1-c1ccccc1Cl [Compound 23],479
3,Cc1nc(N2CCC3(CC2)Cc2ccccc2[C@@H]3N)c(CO)nc1-c1cccc(Cl)c1Cl [Compound 24],> 1000
4,Cc1nc(N2CCC3(CC2)Cc2ccccc2[C@H]3N)c(CO)nc1-c1cc2ccccc2[nH]1 [Compound 26],449
5,Cc1nc(N2CCC3(CC2)Cc2cc(C(N)=O)ccc2[C@H]3N)c(CO)nc1-c1cccc(Cl)c1Cl [Compound 27],> 1000
6,Cc1nc(N2CCC3(CC2)Cc2cccc(Br)c2[C@H]3N)c(CO)nc1-c1cccc(Cl)c1Cl [Compound 28],> 1000
7,Cc1nc(N2CCC3(CC2)Cc2ccc(N=S(C)(C)=O)cc2[C@H]3N)c(CO)nc1-c1cccc(Cl)c1Cl [Compound 29],199
8,Cc1nc(N2CCC3(CC2)Cc2c(C#N)cccc2[C@H]3N)c(CO)nc1-c1cccc(Cl)c1Cl [Compound 30],207
9,Cc1nc(N2CCC3(CC2)Cc2ccc(S(C)(=O)=O)cc2[C@H]3N)c(CO)nc1-c1cccc(Cl)c1Cl [Compound 31],249
10,Cc1nc(N2CCC3(CC2)Cc2ccc(C(F)(F)F)cc2[C@H]3N)c(CO)nc1-c1cccc(Cl)c1Cl [Compound 34],90
11,Cc1nc(N2CCC3(CC2)Cc2cccnc2[C@H]3N)c(CO)nc1-c1cccc(Cl)c1Cl [Compound 35],101
12,Cc1nc(N2CCC3(CC2)Cc2cnccc2[C@H]3N)c(CO)nc1-c1cccc(Cl)c1Cl [Compound 38],> 1000
13,COc1ccc(-c2nc(CO)c(N3CCC4(CC3)Cc3ccccc3[C@H]4N)nc2C)c(Cl)c1 [Compound 41],97
14,Cc1nc(N2CCC3(CC2)Cc2ccccc2[C@H]3N)c(CO)nc1-c1ccc(S(C)(=O)=O)cc1Cl [Compound 42],732
15,Cc1nc(N2CCC3(CC2)Cc2ccccc2[C@H]3N)c(CO)nc1-c1cncc(Cl)c1Cl [Compound 43],225
16,Cc1nc(N2CCC3(CC2)Cc2ccccc2[C@H]3N)c(CO)nc1-c1cncc(Cl)c1 [Compound 44],> 1000
17,Cc1nc(N2CCC3(CC2)Cc2ccccc2[C@H]3N)c(CO)nc1-c1cnc(N)cc1Cl [Compound 45],> 1000
18,COc1ccc(-c2nc(CO)c(N3CCC4(CC3)Cc3ncccc3[C@H]4N)nc2C)c(Cl)c1 [Compound 46],379
19,Cc1ccc2c(c1)[C@H](N)C1(CCN(c3nc(C)c(-c4ccnc(Cl)c4Cl)nc3CO)CC1)C2 [Compound 48],> 1000
20,Cc1cnc2c(c1)[C@H](N)C1(CCN(c3nc(C)c(-c4ccnc(Cl)c4Cl)nc3CO)CC1)C2 [Compound 50],453
21,Cc1cnc2c(c1)[C@H](N)C1(CCN(c3nc(C)c(-c4ccncc4Cl)nc3CO)CC1)C2 [Compound 52],> 1000
22,COc1ccc(-c2nc(CO)c(N3CCC4(CC3)Cc3ccccc3[C@H]4N)nc2C)c(Cl)c1Cl [Compound 53],328
23,Cc1nc(N2CCC3(CC2)Cc2ccccc2[C@H]3N)c(CO)nc1-c1cc(N)nc(C)c1Cl [Compound 54],83
24,Cc1ccnc(-c2nc(CO)c(N3CCC4(CC3)Cc3ccccc3[C@H]4N)nc2C)c1Cl [Compound 55],> 1000
25,COc1ccc(-c2nc(CO)c(N3CCC4(CC3)Cc3ccccc3[C@H]4N)nc2C)c(Cl)n1 [Compound 56],182
26,Cc1nc(N2CCC3(CC2)Cc2ccccc2[C@H]3N)c(CO)nc1-c1ccc(=O)[nH]c1Cl [Compound 57],> 1000
27,CNc1cc(Cl)c(-c2nc(CO)c(N3CCC4(CC3)Cc3ccccc3[C@H]4N)nc2C)cn1 [Compound 58],> 1000
28,CNc1ccc(-c2nc(CO)c(N3CCC4(CC3)Cc3ccccc3[C@H]4N)nc2C)c(Cl)c1C(F)(F)F [Compound 59],115
29,Cc1cnc2c(c1)[C@@H](N)C1(CCN(c3nc(C)c(-c4ccnc(Cl)c4Cl)nc3C(C)O)CC1)C2 (stereo partly drawn) [Compound 68],530

# Results, then the compound that gave them:
row,IC50 [nM],Compound
1,29,Cc1nc(N2CCC3(CC2)Cc2ccccc2[C@H]3N)c(CO)nc1-c1ccnc(Cl)c1Cl [Compound 19]
2,48,Cc1ccc2c(c1)[C@@H](N)C1(CCN(c3nc(C)c(-c4cccc(Cl)c4Cl)nc3CO)CC1)C2 [Compound 20]
3,37,Cc1cccc(-c2nc(CO)c(N3CCC4(CC3)Cc3ccccc3[C@H]4N)nc2C)c1Cl [Compound 25]
4,29,Cc1nc(N2CCC3(CC2)Cc2ccc(Br)cc2[C@H]3N)c(CO)nc1-c1cccc(Cl)c1Cl [Compound 32]
5,17,Cc1nc(N2CCC3(CC2)Cc2ccc(Cl)cc2[C@H]3N)c(CO)nc1-c1cccc(Cl)c1Cl [Compound 33]
6,31,Cc1nc(N2CCC3(CC2)Cc2ccc(OC(F)(F)F)cc2[C@H]3N)c(CO)nc1-c1cccc(Cl)c1Cl [Compound 36]
7,75,Cc1nc(N2CCC3(CC2)Cc2ccncc2[C@H]3N)c(CO)nc1-c1cccc(Cl)c1Cl [Compound 37]
8,11,Cc1cnc2c(c1)[C@@H](N)C1(CCN(c3nc(C)c(-c4cccc(Cl)c4Cl)nc3CO)CC1)C2 [Compound 39]
9,30,Cc1nc(N2CCC3(CC2)Cc2ncccc2[C@H]3N)c(CO)nc1-c1ccnc(Cl)c1Cl [Compound 40]
10,81,Cc1cnc2c(c1)[C@@H](N)C1(CCN(c3nc(C)c(-c4ccncc4Cl)nc3CO)CC1)C2 [Compound 51]
11,75,Cc1cnc2c(c1)[C@@H](N)C1(CCN(c3nc(C)c(-c4ccnc(C)c4Cl)nc3CO)CC1)C2 [Compound 60]
12,63,Cc1cncc(-c2nc(CO)c(N3CCC4(CC3)Cc3ccccc3[C@H]4N)nc2C)c1Cl [Compound 61]
13,40,Cc1ccc2c(c1)[C@@H](N)C1(CCN(c3nc(C)c(-c4cc(N)nc(Cl)c4Cl)nc3CO)CC1)C2 [Compound 63]
